Laboratory results: publication PMC10053118, “Laccase Production from Agrocybe pediades: Purification and Functional Characterization of a Consistent Laccase Isoenzyme in Liquid Culture” (Microorganisms, 2023)

Tested on: T1, extracellular laccase (laccI) of A. pediades
T1 construct: native, partially purified from culture filtrate (Sephacryl 200), glycosylated monomer, 72 kDa native, 55-60 kDa denatured
Experiment: spectrophotometric oxidation at […] nm, Michaelis-Menten nonlinear fit
Type: biochemical, Agrocybe pediades
Settings: pH 5.0; 0-2 mM substrate; air oxygen as co-substrate; read-out: apparent Km

Km: 100 µM
Compound: COc1cccc(OC)c1O [2,6-DMP, 2,6-dimethoxyphenol]
